Where two headings read alike, the source gives them in different places.
How the values were obtained:
α4β1 = molecular target: T1, α4β1 (Homo sapiens, UniProt P05556+P13612); experiment: Ramos Cell Adhesion Assay (α4β1 Mediated Adhesion/VCAM-1); format: cell-based; settings: Ramos cell adhesion to hVCAM-1; read-out: α4β1 IC50
T1 construct: Ramos Cell Adhesion Assay (α4β1 Mediated Adhesion/VCAM-1); endogenous in cells; host or cells: Ramos cells
Outline: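 Plates coated overnight at 4° C with recombinant hVCAM-1 at 4.0 μg/mL, pH 9.0, then blocked in PBS/1% BSA. Calcein AM-labeled Ramos cells added with compounds and left to adhere 1 h at room temperature; after washing, cells lysed in 1 M Tris pH 8.0/1% SDS.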

[1] = tested on: alpha 4 beta 7-positive cells; experiment: Intraperitoneal Delayed Type Hypersensitivity (IP-DTH) Response; format: in vivo, mice; settings: peritoneal cells 48 h after antigen challenge; for inhibition in vivo at 30 mg/kg: Mus musculus, 48 h, read-out: % Decrease in recruited α4β7 + cells
Description: Intraperitoneal Delayed Type Hypersensitivity (IP-DTH) Response. A Method for Analyzing Effects of Integrin Antagonists In Vivo
Integrin antagonists are meant to interfere with the binding or adhesion of immune cells, such as lymphocytes, monocytes and eosinophils that bear integrin receptors to counter-receptors that exist on endothelial cells in the vasculature. Among those integrin-bearing cells, cells that are positive for alpha 4 beta 7 integrin (found in the mesenteric system and in the gut), would comprise many of the cells recruited to a peritoneal antigen challenge. One can maximize the number of alpha 4 beta 7 integrin-positive cells recruited by inducing an intraperitoneal delayed type hypersensitivity response to antigen that will recruite antigen-responsive cells from the mesenteric lymph nodes. An inhibitor of alpha 4 beta 7 integrin should prevent the recruitment of these cells to the site of antigen challenge. Alpha 4 beta 7 integrin-positive cells are considered to be gut-homing, and are found in greater abundance in inflamed tissues of the GI tract and pancrea.
The antigenic challenge will induce a delayed type hypersensitivity response. In this model, animals were primed with antigen, then 7 days later were challenged intraperitoneally with the same antigen. During the ensuing 24-48 h, cells that were primed to recognize this antigen should be recruited to the challenge site. If the site is the peritoneal cavity, the recruited cells can be obtained by […] the cavity with a physiological buffer and collecting the lavage fluid.
The contribution of alpha 4 beta 7 integrin positive cells to the peritonal cavity cell population was ascertained by using flow cytometry to evaluate their relative percent in this population.
The mice were primed via intraperitoneal administration with 25 micrograms ovalbumin in a physiological buffer that may or may not contain alum as an adjuvant.
After 7 days, the mice were challenged with 25 micrograms ovalbumin via intraperitoneal administration.
Compounds were administered either orally (po), or subcutaneously (sc), either once daily or twice daily, for 2 days, starting on the day of antigen challenge.
Forty eight hours after antigen challenge, the elicited cells in the peritoneal cavity were harvested by lavaging the cavity in physiological saline or phosphate buffered saline, with calcium and magnesium salts.
The cells were washed into Staining Buffer consisting of phosphate buffered saline, 1% bovine serum albumin and 0.1% sodium azide, and resuspended to 2×10e7 cells/ml. A portion of 1×10e6 cells was deposited into a 96-well V-bottom plate for staining.
The sample of 1×10e6 cells was stained with fluorochrome-coupled antibody to alpha 4 beta 7 integrin or a primary antibody to alpha 4 beta 7 integrin followed by a secondary fluorochrome-coupled antibody. Each staining step was carried out at 4° C. for 30 to 45 min with gentle shaking, followed by 4 washes with Staining Buffer at 4° C. The cells were resuspended in 200 microliters of 1% paraformaldehyde in phosphate buffered saline. The cells were then transferred to test tubes and maintained at 4° C. until analyzed by flow cytometry to determine numbers of alpha4 beta7-postive cells.
A Becton-Dickenson FACSort (B-D instruments) was used for these studies.
Comparisons were made between numbers of alpha 4 beta 7-positive cells in samples taken from antigen-treated animals and numbers of alpha 4 beta 7-positive cells taken from antigen-treated animals administered experimental compounds.

T1 sequence (P13612 34-1032): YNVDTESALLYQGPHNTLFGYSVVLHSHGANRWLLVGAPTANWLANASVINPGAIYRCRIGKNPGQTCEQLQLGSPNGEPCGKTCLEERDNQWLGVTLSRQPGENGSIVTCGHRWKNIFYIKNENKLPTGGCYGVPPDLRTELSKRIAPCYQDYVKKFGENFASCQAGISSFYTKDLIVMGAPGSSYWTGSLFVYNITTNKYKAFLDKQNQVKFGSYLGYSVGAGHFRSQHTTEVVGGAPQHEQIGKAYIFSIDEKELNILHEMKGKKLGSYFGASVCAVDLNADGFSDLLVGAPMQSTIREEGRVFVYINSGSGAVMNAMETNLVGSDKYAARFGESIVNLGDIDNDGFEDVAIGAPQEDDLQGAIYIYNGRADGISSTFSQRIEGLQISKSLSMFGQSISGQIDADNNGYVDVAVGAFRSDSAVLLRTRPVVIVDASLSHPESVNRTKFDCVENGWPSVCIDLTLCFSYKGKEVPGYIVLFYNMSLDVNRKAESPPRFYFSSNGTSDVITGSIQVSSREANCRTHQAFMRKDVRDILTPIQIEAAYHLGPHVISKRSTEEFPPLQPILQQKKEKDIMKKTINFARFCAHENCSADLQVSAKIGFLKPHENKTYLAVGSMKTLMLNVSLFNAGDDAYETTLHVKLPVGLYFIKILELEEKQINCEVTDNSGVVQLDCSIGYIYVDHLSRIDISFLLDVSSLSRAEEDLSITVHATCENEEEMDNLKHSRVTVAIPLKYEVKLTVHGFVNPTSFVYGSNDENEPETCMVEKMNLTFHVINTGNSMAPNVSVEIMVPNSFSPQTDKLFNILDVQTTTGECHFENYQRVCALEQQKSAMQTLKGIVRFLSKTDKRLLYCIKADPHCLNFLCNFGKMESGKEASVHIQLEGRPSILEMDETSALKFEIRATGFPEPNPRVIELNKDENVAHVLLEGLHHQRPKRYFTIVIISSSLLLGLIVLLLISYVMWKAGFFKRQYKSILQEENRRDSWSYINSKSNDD
T1 sequence (P05556 21-798): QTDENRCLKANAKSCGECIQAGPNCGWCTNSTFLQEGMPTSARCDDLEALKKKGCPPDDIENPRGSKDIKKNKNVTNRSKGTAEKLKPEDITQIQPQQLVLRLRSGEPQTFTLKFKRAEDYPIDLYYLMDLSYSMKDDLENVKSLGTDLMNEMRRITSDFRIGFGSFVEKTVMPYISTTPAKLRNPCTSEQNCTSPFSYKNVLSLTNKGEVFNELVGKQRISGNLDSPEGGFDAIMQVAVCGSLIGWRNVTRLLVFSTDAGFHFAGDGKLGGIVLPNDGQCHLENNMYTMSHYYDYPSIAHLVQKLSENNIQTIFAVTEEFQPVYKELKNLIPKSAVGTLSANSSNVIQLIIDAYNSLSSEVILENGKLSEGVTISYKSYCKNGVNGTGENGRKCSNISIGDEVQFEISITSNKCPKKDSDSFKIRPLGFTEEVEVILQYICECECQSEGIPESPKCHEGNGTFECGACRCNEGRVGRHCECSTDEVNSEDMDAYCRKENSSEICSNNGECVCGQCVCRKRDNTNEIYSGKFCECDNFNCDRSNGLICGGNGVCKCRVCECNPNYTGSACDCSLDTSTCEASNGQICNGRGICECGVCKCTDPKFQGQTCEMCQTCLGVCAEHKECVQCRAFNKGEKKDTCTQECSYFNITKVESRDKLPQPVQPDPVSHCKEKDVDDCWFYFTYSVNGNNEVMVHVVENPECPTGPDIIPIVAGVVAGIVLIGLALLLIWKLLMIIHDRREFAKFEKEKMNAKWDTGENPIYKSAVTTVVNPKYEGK

Question: For `COc1cnn(CC(N)=O)c(=O)c1-c1ccc(C[C@H](NC(=O)c2c(Cl)cccc2Cl)C(=O)O)cc1` [Cpd 5], which IC50 (α4β1) is on record?
Answer: 307 nM

Question: What about the inhibition in vivo at 30 mg/kg ([1]; sc, 30 mg/kg sc bid × 2) of the same compound?
Answer: 53.4%

Question: How did the IC50 (α4β1) turn out when `COc1cnn(CCN2CCOCC2)c(=O)c1-c1ccc(C[C@H](NC(=O)c2c(Cl)cccc2Cl)C(=O)O)cc1` [Cpd 10] was run?
Answer: 363 nM

Question: And the inhibition in vivo at 30 mg/kg ([1]; sc, 30 mg/kg sc bid × 2)?
Answer: 56.3%

Question: Which IC50 (α4β1) does the source give for `COc1cnn(CC(=O)O)c(=O)c1-c1ccc(C[C@H](NC(=O)c2c(Cl)cccc2Cl)C(=O)O)cc1` [Cpd 11] here?
Answer: 842 nM

Question: What about the inhibition in vivo at 30 mg/kg ([1]; sc, 30 mg/kg sc bid × 2) of the same compound?
Answer: 70.5%

Question: Which results are given for `COc1cnn(CCO)c(=O)c1-c1ccc(C[C@H](NC(=O)c2c(Cl)cccc2Cl)C(=O)O)cc1` [Cpd 15, (S)-2-(2,6-Dichloro-benzoylamino)-3{4-[2-(2-hydroxy-ethyl)-5-methoxy-3-oxo-2,3-dihydro-pyridazin-4-yl]-phenyl}-propionic acid]?
Answer: IC50 (α4β1): 125 nM; inhibition in vivo at 30 mg/kg ([1]; sc, 30 mg/kg sc bid × 2): 10.4%

Question: For `CNc1cnn(CC(C)=O)c(=O)c1-c1ccc(C[C@H](NC(=O)c2c(Cl)cccc2Cl)C(=O)O)cc1` [Cpd 18], which IC50 (α4β1) is on record?
Answer: > 1000 nM

Question: And the “% Decrease in recruited α4β7 + cells” value ([1]; 30 mg/kg sc bid × 2)?
Answer: 52.8%

Question: How did the IC50 (α4β1) turn out when `O=C(N[C@@H](Cc1ccc(-c2c(OCc3cccnc3)cnn(CCO)c2=O)cc1)C(=O)O)c1c(Cl)cccc1Cl` [Cpd 30] was run?
Answer: 284 nM

Question: What about the inhibition in vivo at 30 mg/kg ([1]; sc, 30 mg/kg sc bid × 2) of the same compound?
Answer: 37.4%

Question: `O=C(N[C@@H](Cc1ccc(-c2c(OCC3CC3)cnn(CCO)c2=O)cc1)C(=O)O)c1c(Cl)cccc1Cl` [Cpd 35] was tested. Which IC50 (α4β1) did it give?
Answer: 342 nM

Question: And the inhibition in vivo at 30 mg/kg ([1]; sc, 30 mg/kg sc bid × 2)?
Answer: 49.8%

Question: For `Cn1ncc(N)c(-c2ccc(C[C@H](NC(=O)c3c(Cl)cccc3Cl)C(=O)O)cc2)c1=O` [Cpd 46], which IC50 (α4β1) is on record?
Answer: 370 nM

Question: And the inhibition in vivo at 30 mg/kg ([1]; sc, 30 mg/kg sc bid × 2)?
Answer: 56.6%

Question: `O=C(N[C@@H](Cc1ccc(-c2c(N3CCOCC3)cnn(CCO)c2=O)cc1)C(=O)O)c1c(Cl)cccc1Cl` [Cpd 61] was tested. Which IC50 (α4β1) did it give?
Answer: 221 nM

Question: What about the inhibition in vivo at 30 mg/kg ([1]; sc, 30 mg/kg sc bid × 2) of the same compound?
Answer: 37.4%

Question: For `COc1cnn(C)c(=O)c1-c1ccc(C[C@H](NC(=O)[C@@H]2C3CCC(CC3)N2C(=O)CCc2ccccc2)C(=O)O)cc1` [Cpd 89, 3-[4-(5-Methoxy-2-methyl-3-oxo-2,3-dihydro-pyridazin-4-yl)-phenyl]-2(S)-{[2-(3-phenyl-propionyl)-2-aza-bicyclo[2.2.2]octane-3(S)-carbonyl]-amino}-propionic acid], which IC50 (α4β1) is on record?
Answer: 39.7 nM

Question: For `COc1cnn(CCO)c(=O)c1-c1ccc(C[C@H](NC(=O)OC(C)(C)C)C(=O)O)cc1` [Cpd 120], which inhibition in vivo at 30 mg/kg ([1]; po, 30 mg/kg po bid × 2) is on record?
Answer: 25.4%

Question: How did the IC50 (α4β1) turn out when `COC(=O)[C@H](Cc1ccc(-c2c(OC)cnn(C)c2=O)cc1)NC(=O)c1c(Cl)cccc1Cl` [Cpd 151] was run?
Answer: > 5000 nM

Question: Which IC50 (α4β1) does the source give for `COc1cnn(CCO)c(=O)c1-c1ccc(C[C@H](NC(=O)c2c(Cl)cccc2Cl)C(=O)OCCO)cc1` [Cpd 199] here?
Answer: > 5000 nM

Question: And the “% Decrease in recruited α4β7 + cells” value ([1]; 30 mg/kg po bid × 2)?
Answer: 16.04%

Question: How did the IC50 (α4β1) turn out when `COc1cnn(C)c(=O)c1-c1ccc(C[C@H](NC(=O)c2c(Cl)cccc2Cl)C(=O)OCC(C)(C)C)cc1` [Cpd 207] was run?
Answer: > 5000 nM

Question: And the inhibition in vivo at 30 mg/kg ([1]; po, 30 mg/kg po bid × 2)?
Answer: 25.6%

Question: `Cn1ncc(N)c(-c2ccc(C[C@H](NC(=O)c3c(Cl)cccc3Cl)C(=O)OCCO)cc2)c1=O` [Cpd 232] was tested. Which IC50 (α4β1) did it give?
Answer: > 5000 nM

Question: What about the inhibition in vivo at 30 mg/kg ([1]; po, 30 mg/kg po bid × 2) of the same compound?
Answer: 47.8%

From patent publication US20050192279A1, “Pyridazinones as antagonists of alpha4 integrins” (priority 2004, published 2005)
